≈ marks a conversion by molar mass, not a printed value. Where a name gives a salt, the structure may show the parent alone. Read-outs that look alike come from different tables or passages of the source.
Key:
HepG2 cell line = assay: In vitro cytotoxicity assay (MTS tetrazolium reduction); format: cell-based; conditions: HepG2, 48 h
Method: In an embodiment, in vitro cytotoxicity assay was carried out. In vitro cytotoxicity assay was performed in HepG2 cell line using a tetrazolium reduction assay for cell viability evaluation (MTS reduction as described by Cory A. et al (Cancer Commun. 1991, 3 (7), 207-212)). The assay was performed in 96-well plates for 48 h at 37° C. and 5% CO2 in incubation medium (low glucose DMEM with Glutamax, 10% FBS, 1% Pen/Strep and DMSO). Cells were exposed to 8 different compound concentrations in successive dilutions (usually, base 2), plus a positive control (a compound in a concentration known to decrease cell viability above 50%) and a negative control (incubation medium). Six replicate wells were assayed for each condition. Compound stock solutions were prepared in DMSO at 20 mM, whenever possible, filter sterilized, aliquoted and stored at −20° C. The maximum compound concentrations tested depend on its solubility in incubation medium, and on the maximum DMSO percentage allowable without loss of cell viability. At the end of the incubation period, tetrazolium reagent was added (CellTiter 96′ AQueous Solution from Promega); cells were incubated for another 3 hours in order to promote tetrazolium reduction to formazan by viable cells. The amount of soluble formazan produced was evaluated by 490 nm absorbance reading in a spectrophotometer plate reader. […] Whenever possible, IC50 was calculated as the concentration of compound that reduces cell viability by 50%.

[1] = tested on: H37Rv M. tuberculosis (strain ATCC 25618); assay: Mycobacterium tuberculosis susceptibility assay REMA (resazurin microtiter assay); format: cell-based; conditions: for MIC: Mycobacterium tuberculosis, 144 h, read-out: REMA MIC; for REMA MIC: Table 2
[2] = MTB growth REMA, H37Rv, Middlebrook 7H9, 6 days at 37° C.
[3] = Homo sapiens, Table 1, cytotoxicity, MTS, read-out: IC50
[4] = Table 2, cytotoxicity, MTS, read-out: IC50
[5] = Table 1, MTB growth REMA, H37Rv, Middlebrook 7H9, 6 days at 37° C.

Compound | IC50 (HepG2 cell line; Homo sapiens) | IC50 (HepG2 cell line; Table 2, cytotoxicity, MTS) | MIC [1] | REMA MIC [1, 2] | IC50 (HepG2 cell line; [3]) | IC50 (HepG2 cell line; [4]) | MIC [1, 5]
COc1cccc2ccc(N3CCC(c4nc(-c5ccc(N6CCCC6)nc5)no4)CC3)nc12 [Compound 50, 5-(1-(8-methoxyquinolin-2-yl)piperidin-4-yl)-3-(6-(pyrrolidin-1-yl)pyridin-3-yl)-1,2,4-oxadiazole hydrochloride] | > 100 µM | > 100 µM | 7.8 to 15.6 µM | +++ (7.8-15.6) | – | – | –
COc1cccc2ccc(N3CCC(c4nc(-c5cccc(C(F)(F)F)c5)no4)CC3)nc12 [Compound 7, 5-(1-(8-methoxyquinolin-2-yl)piperidin-4-yl)-3-(3-(trifluoromethyl)phenyl)-1,2,4-oxadiazole] | > 100 µM | – | 15.6 to 31.5 µM (≈ 7.09 to 14.3 µg/mL) | – | – | – | –
COc1cc(OC)cc(-c2noc(C3CCN(c4ccc5cccc(OC)c5n4)CC3)n2)c1 [Compound 6, 3-(3,5-dimethoxyphenyl)-5-(1-(8-methoxyquinolin-2-yl)piperidin-4-yl)-1,2,4-oxadiazole] | > 100 µM | > 100 µM | 7.8 to 15.6 µM (≈ 3.48 to 6.97 µg/mL) | +++ (7.8-15.6) | – | – | –
COc1cccc2ccc(N3CCC(c4nc(-c5cccnc5)no4)CC3)nc12 [Compound 10, 5-(1-(8-methoxyquinolin-2-yl)piperidin-4-yl)-3-(pyridin-3-yl)-1,2,4-oxadiazole hydrochloride] | 50 to 100 µM | – | 15.6 to 31.5 µM | – | – | – | –
COc1cccc2ccc(N3CCC(c4nc(-c5ccc(O)cc5)no4)CC3)nc12 [Compound 24, 4-(5-(1-(8-methoxyquinolin-2-yl)piperidin-4-yl)-1,2,4-oxadiazol-3-yl)phenol] | – | – | – | +++ (7.8-15.6) | > 100 µM | > 100 µM | 7.8 to 15.6 µM (≈ 3.14 to 6.28 µg/mL)
c1cncc(-c2noc(C3CCN(c4ccc5cc(-c6ccncc6)ccc5n4)CC3)n2)c1 [Compound 27, 3-(pyridin-3-yl)-5-(1-(6-(pyridin-4-yl)quinolin-2-yl)piperidin-4-yl)-1,2,4-oxadiazole] | – | – | – | ++++ (<7.8) | > 100 µM | > 100 µM | < 7.8 µM
COc1cccc2ccc(N3CCC(c4nc(-c5ccc(NCCO)nc5)no4)CC3)nc12 [Compound 35, 2-((5-(5-(1-(8-methoxyquinolin-2-yl)piperidin-4-yl)-1,2,4-oxadiazol-3-yl)pyridin-2-yl)amino)ethan-1-ol hydrochloride] | > 100 µM | – | 15.6 to 31.5 µM | – | – | – | –
Clc1cccc2ccc(N3CCC(c4nc(-c5cccnc5)no4)CC3)nc12 [Compound 18, 5-(1-(8-chloroquinolin-2-yl)piperidin-4-yl)-3-(pyridin-3-yl)-1,2,4-oxadiazole hydrochloride] | 50 to 100 µM | – | 15.6 to 31.5 µM | – | – | – | –
COc1cccc2ccc(N3CCC(c4nc(-c5ccc(C(F)(F)F)cc5)no4)CC3)nc12 [Compound 5, 5-(1-(8-methoxyquinolin-2-yl)piperidin-4-yl)-3-(4-(trifluoromethyl)phenyl)-1,2,4-oxadiazole hydrochloride] | 50 to 100 µM | – | 7.8 to 15.6 µM | – | – | – | –
COc1cccc2ccc(N3CCC(c4nc(-c5ccc(C(F)(F)F)nc5)no4)CC3)nc12 [Compound 11, 5-(1-(8-methoxyquinolin-2-yl)piperidin-4-yl)-3-(6-(trifluoromethyl)pyridin-3-yl)-1,2,4-oxadiazole] | 20 to 50 µM | – | < 7.8 µM | – | – | – | –
COc1ccc2nc(N3CCC(c4nc(-c5cccnc5)no4)CC3)ccc2c1 [Compound 21, 5-(1-(6-methoxyquinolin-2-yl)piperidin-4-yl)-3-(pyridin-3-yl)-1,2,4-oxadiazole] | – | – | – | ++++ (<7.8) | > 100 µM | > 100 µM | < 7.8 µM
COc1cccc2ccc(N3CCC(c4nc(-c5ccc(Cl)nc5)no4)CC3)nc12 [Compound 31, 3-(6-chloropyridin-3-yl)-5-(1-(8-methoxyquinolin-2-yl)piperidin-4-yl)-1,2,4-oxadiazole hydrochloride] | 20 to 50 µM | – | 15.6 to 31.5 µM | – | – | – | –
COc1cccc2ccc(N3CCC(c4nc(-c5ccc(N6CCCCC6)nc5)no4)CC3)nc12 [Compound 33, 5-(1-(8-methoxyquinolin-2-yl)piperidin-4-yl)-3-(6-(piperidin-1-yl)pyridin-3-yl)-1,2,4-oxadiazole] | > 100 µM | > 100 µM | < 7.8 µM | ++++ (<7.8) | – | – | –
COc1cccc2ccc(N3CCC(c4nc(-c5ccc(N6CCNCC6)nc5)no4)CC3)nc12 [Compound 34, 5-(1-(8-methoxyquinolin-2-yl)piperidin-4-yl)-3-(6-(piperazin-1-yl)pyridin-3-yl)-1,2,4-oxadiazole] | – | – | – | – | < 20 µM | – | 15.6 to 31.5 µM (≈ 7.36 to 14.9 µg/mL)
